According to article PMC8658806, “New Carbonic Anhydrase-II Inhibitors from Marine Macro Brown Alga Dictyopteris hoytii Supported by In Silico Studies” (Molecules, 2021):
Where two headings read alike, the source gives them in different places.

Target: T1, purified bovine erythrocyte CA-II (Bos taurus, UniProt P00921)
T1 construct: purified bovine erythrocyte CA-II; from tissue; host or cells: bovine erythrocytes
Experiment: Carbonic anhydrase II inhibition (4-nitrophenyl acetate hydrolysis, microplate)
Format: biochemical
Conditions: for % Inhibition: preliminary screening, test concentration not given
Description: The total reaction volume of 200 µL including 20 µL of test compounds, isolated from Dictyopteris hoytii, and prepared in DMSO, followed by the addition of 140 µL of HEPES–tris buffer, 20 µL of purified bovine erythrocyte CA-II (0.1 mg/mL) prepared in buffer, and 20 µL of a solution of 4-nitrophenyl acetate. Then, 20 µL of the test compound was incubated with the enzyme carbonic anhydrase (EC 4.2.1.1) for 15 min in 96-well flat bottom plates. The rate of product formation was monitored with the addition of 20 µL of 4-NPA as substrate, prepared in methanol at the final concentration of 0.7 mM, at 25 °C for 30 min with regular intervals of 1 min, by using microplate readers (Bio-Rad, Molecular Devices, CA, USA). HEPES-tris was used as a buffer for the reaction at a final concentration of 20 mM at pH 7.4.

[1] = Table 1 and text, unit given, NA = not active, read-out: IC50 ± SEM

T1 sequence (P00921 whole entry): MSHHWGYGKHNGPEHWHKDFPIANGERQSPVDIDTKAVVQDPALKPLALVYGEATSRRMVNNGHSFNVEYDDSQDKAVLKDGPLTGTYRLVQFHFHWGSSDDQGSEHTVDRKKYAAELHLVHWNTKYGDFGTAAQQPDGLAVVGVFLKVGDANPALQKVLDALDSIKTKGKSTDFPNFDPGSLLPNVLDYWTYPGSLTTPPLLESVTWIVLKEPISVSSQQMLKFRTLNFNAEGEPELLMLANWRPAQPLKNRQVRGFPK

Row | Compound | IC50 [1] [µM] | % Inhibition [%] | IC50 [µM] | IC50 (Table 2 repeat of Table 1 values, read-out: IC50 ± S.E.M) [µM]
1 | O=Cc1ccccc1/C=C/C(=O)O [Compound 1, (E)-3-(2-formylphenyl)acrylic acid] | 44.9 ± 1.1 | 79.4 |  | 
2 | COC(OC)c1ccc(/C=C/C(=O)O)cc1 [Compound 5, (E)-3-(4-(dimethoxymethyl)phenyl)acrylic acid] | 17.7 ± 2.01 | 93.9 |  | 
3 | C=CCCCCCCCCCCCCCCCC [Compound 7, octadec-1-ene] | 16.3 ± 0.31 | 88.0 |  | 
4 | O=Cc1ccc(C=O)cc1 [Compound 9, terephthalaldehyde] | 53.1 ± 1.2 | 93.9 |  | 
5 | C/C=C(\CC[C@@H](C)[C@H]1CC[C@H]2[C@@H]3CC=C4C[C@@H](O)CC[C@]4(C)[C@H]3CC[C@]12C)C(C)C [Compound 15, fucosterol] |  | 69.8 | 31.3 ± 1.34 | 
6 | CCCCCCCCCCCCCCCCCCC=CCCCCCCCC(=O)O [Compound 19, n-octacos-9-enoic acid] | 24.3 ± 1.38 | 87.3 |  | 
7 | ethyl methyl 2-bromobenzene 1,4-dioate [Compound 13] | 39.5 ± 0.73 | 87.3 |  | 39.5 ± 0.73
